Where “and” joins values, the source holds several entries; their conditions need not be identical. Equal entries are not always repeated. Structures can show the parent of a compound that is named as a salt.
Legend:
[1] = tested on: complement activity of sera; assay: Guinea Pig Intraperitoneal Test (GPIP); assay type: in vivo; conditions: 200 mg./kg. i.p.
Method: An active inhibitor protects C2 from C1 and C4; (ii) Cap 50 Test--Here, appropriate amounts of the test compound are added to a pool of guinea pig serum in vitro, after which the undiluted serum capillary tube assay referred to above is run. The concentration of compound inhibiting 50% is reported; and (iii) Guinea Pig Intraperitoneal Test (GPIP)--Guinea pigs weighing about 300 g. are dosed intraperitoneally (i.p.) with 200 mg./kg. of the test compound dissolved in saline and adjusted to pH 7-8. Approximately 0.4 ml. blood samples, […], are collected directly into centrifuge tubes; 5 ml. blood samples, […] beakers. The samples are allowed to clot, centrifuged, and the resultant sera are assayed for complement activity using the capillary complement assay. Percent inhibition are calculated by comparison with simultaneous controls.

activated human C1 = activated human C1 (Homo sapiens, UniProt P09871); assay: Test Code 026 (C1 inhibitor); assay type: biochemical; conditions: twofold serial dilutions; higher well number indicates higher activity
activated human C1, sequence (P09871 16-437 limits assumed): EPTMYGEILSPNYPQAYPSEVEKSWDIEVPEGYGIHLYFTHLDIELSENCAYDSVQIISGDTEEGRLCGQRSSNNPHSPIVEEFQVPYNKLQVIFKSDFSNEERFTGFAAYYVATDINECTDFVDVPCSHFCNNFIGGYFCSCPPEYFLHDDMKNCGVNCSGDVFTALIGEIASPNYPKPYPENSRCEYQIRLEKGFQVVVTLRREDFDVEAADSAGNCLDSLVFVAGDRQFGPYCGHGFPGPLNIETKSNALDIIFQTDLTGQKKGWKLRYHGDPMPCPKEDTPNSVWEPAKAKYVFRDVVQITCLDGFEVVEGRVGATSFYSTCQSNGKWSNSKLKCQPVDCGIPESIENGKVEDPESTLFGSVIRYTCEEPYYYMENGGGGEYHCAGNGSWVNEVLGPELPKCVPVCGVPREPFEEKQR
activated human C1, sequence (P09871 438-688 limits assumed): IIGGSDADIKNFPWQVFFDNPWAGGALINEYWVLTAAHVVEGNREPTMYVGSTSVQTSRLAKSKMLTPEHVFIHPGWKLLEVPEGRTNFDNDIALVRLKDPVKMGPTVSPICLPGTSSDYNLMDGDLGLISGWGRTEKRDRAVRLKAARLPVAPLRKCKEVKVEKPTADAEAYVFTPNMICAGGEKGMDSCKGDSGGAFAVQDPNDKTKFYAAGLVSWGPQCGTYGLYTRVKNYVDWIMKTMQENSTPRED
activated human C1, sequence (P00736 18-463 partner limits assumed): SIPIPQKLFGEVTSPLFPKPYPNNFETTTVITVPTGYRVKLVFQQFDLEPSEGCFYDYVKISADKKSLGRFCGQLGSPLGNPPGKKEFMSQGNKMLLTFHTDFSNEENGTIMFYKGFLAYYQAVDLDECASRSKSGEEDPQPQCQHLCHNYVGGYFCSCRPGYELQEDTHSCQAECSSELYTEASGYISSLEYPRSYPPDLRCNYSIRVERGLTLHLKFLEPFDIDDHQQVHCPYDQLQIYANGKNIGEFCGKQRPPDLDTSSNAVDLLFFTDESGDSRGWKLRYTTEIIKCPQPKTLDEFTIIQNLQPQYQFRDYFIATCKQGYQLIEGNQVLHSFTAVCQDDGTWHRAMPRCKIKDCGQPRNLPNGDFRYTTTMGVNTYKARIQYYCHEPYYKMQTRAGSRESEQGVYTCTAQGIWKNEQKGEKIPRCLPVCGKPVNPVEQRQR
activated human C1, sequence (P00736 464-705 partner limits assumed): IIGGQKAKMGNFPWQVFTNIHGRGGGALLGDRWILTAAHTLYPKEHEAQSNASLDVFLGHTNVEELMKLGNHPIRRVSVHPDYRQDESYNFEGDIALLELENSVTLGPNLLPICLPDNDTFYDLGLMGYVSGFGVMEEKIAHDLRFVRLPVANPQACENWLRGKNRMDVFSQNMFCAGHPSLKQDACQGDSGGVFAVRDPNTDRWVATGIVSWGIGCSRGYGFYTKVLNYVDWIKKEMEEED
Method: An active inhibitor protects C2 from C1 and C4; (ii) Cap 50 Test--Here, appropriate amounts of the test compound are added to a pool of guinea pig serum in vitro, after which the undiluted serum capillary tube assay referred to above is run. The concentration of compound inhibiting 50% is reported; and (iii) Guinea Pig Intraperitoneal Test (GPIP)--Guinea pigs weighing about 300 g. are dosed intraperitoneally (i.p.) with 200 mg./kg. of the test compound dissolved in saline and adjusted to pH 7-8. Approximately 0.4 ml. blood samples, taken by orbital sinus puncture 30 minutes and one hour after injections, are collected directly into centrifuge tubes; 5 ml. blood samples, taken by decapitation 2 hours after injection are collected directly into beakers. The samples are allowed to clot, centrifuged, and the resultant sera are assayed for complement activity using the capillary complement assay. Percent inhibition are calculated by comparison with simultaneous controls.

[2] = tested on: total hemolytic complement activity; conditions: in vitro and in vivo; judged by reduction in total hemolytic complement activity; cited from earlier work

**Q.** For C[C@@H]1O[C@@H](OC[C@H]2O[C@@H](Oc3c(-c4ccc(OCCOS(=O)(=O)O)c(OCCOS(=O)(=O)O)c4)oc4cc(OCCOS(=O)(=O)O)cc(OS(=O)(=O)O)c4c3=O)[C@H](OS(=O)(=O)O)[C@@H](OS(=O)(=O)O)[C@@H]2OS(=O)(=O)O)[C@H](OS(=O)(=O)O)[C@H](OS(=O)(=O)O)[C@H]1OS(=O)(=O)O [3',4',7-Tris(2-hydroxyethyl)rutin, deca(H-sulfate)sodium salt], which “In vivo Activity (Guinea Pig) Intraperitoneal % Inhibition” value ([1]; Time (hours) 6) is on record?
**A.** 48% and 82%

**Q.** And the “In vitro Activity 026 (activity in wells, serial dilution assay)” value (activated human C1)?
**A.** 7-10 wells

**Q.** Which “In vivo Activity (Guinea Pig) Intraperitoneal % Inhibition” value ([1]; Time (hours) 4) does the source give for C[C@@H]1O[C@@H](OC[C@H]2O[C@@H](Oc3c(-c4ccc(OS(=O)(=O)O)c(OS(=O)(=O)O)c4)oc4cc(OCCOS(=O)(=O)O)cc(OS(=O)(=O)O)c4c3=O)[C@H](OS(=O)(=O)O)[C@@H](OS(=O)(=O)O)[C@@H]2OS(=O)(=O)O)[C@H](OS(=O)(=O)O)[C@H](OS(=O)(=O)O)[C@H]1OS(=O)(=O)O [7-(2-hydroxyethyl)rutin, deca(H-sulfate)sodium salt] here?
**A.** 88%

**Q.** What about the “In vivo Activity (Guinea Pig) Intraperitoneal % Inhibition” value ([1]; Time (hours) 6) of the same compound?
**A.** 71%

**Q.** What about the “In vivo Activity (Guinea Pig) Intraperitoneal % Inhibition” value ([1]; Time (hours) 24) of the same compound?
**A.** 20%

**Q.** And the “In vitro Activity 026 (activity in wells, serial dilution assay)” value (activated human C1)?
**A.** 6-12 wells

**Q.** What does the source list for C[C@@H]1O[C@@H](OC[C@H]2O[C@@H](Oc3c(-c4ccc(OS(=O)(=O)O)c(OS(=O)(=O)O)c4)oc4cc(OCCOS(=O)(=O)O)cc(O)c4c3=O)[C@H](OS(=O)(=O)O)[C@@H](OS(=O)(=O)O)[C@@H]2OS(=O)(=O)O)[C@H](OS(=O)(=O)O)[C@H](OS(=O)(=O)O)[C@H]1OS(=O)(=O)O [7-(2-hydroxyethyl)rutin, nona(H-sulfate)sodium salt]?
**A.** In vivo Activity (Guinea Pig) Intraperitoneal % Inhibition ([1]; Time (hours) 4): 86%; In vivo Activity (Guinea Pig) Intraperitoneal % Inhibition ([1]; Time (hours) 6): 71%; In vivo Activity (Guinea Pig) Intraperitoneal % Inhibition ([1]; Time (hours) 24): 35%; In vitro Activity 026 (activity in wells, serial dilution assay) (activated human C1): 9-12 wells

**Q.** With pentosanpolysulfoester as the compound, how does the “anticomplementary activity on human serum” value [2] read?
**A.** has an anticomplementary activity on human serum, both in vitro and in vivo
